Data as given in patent US12371454B2, “Cyclic peptide compound having Kras inhibitory action” (priority 2019, dated 2025).
Starred links: 1 amine or outer side, 2 acyl side, 3 side chain; linkers in the order of their positions; H or OH if unused. Positions of bridges follow the written chain, without caps; N, C: chain ends. Non-standard residues stand in square brackets, D forms with d. Residues, ends and D or L forms follow the SMILES beside them. *: point of attachment. hPhe(3,5-F2-4-CF3) = N[C@@H](CCc1cc(F)c(C(F)(F)F)c(F)c1)C(=O)O; hPhe(3-Cl-4-CF3) = N[C@@H](CCc1ccc(C(F)(F)F)c(Cl)c1)C(=O)O; NMePhe(4-CF3) = CN[C@@H](Cc1ccc(C(F)(F)F)cc1)C(=O)O; Thiomorpholino(1,1-dioxo) = O=S1(=O)CCN(*)CC1; NMeAbu(4,4,4-F3) = CN[C@@H](CC(F)(F)F)C(=O)O; NMePhe(4-Cl) = CN[C@@H](Cc1ccc(Cl)cc1)C(=O)O; X59 = O=C([C@H](Cc1cc(I)ccc1Cl)N[*:1])[*:2]; NMePhe(4-F) = CN[C@@H](Cc1ccc(F)cc1)C(=O)O; X42 = Cc1ccc(I)cc1C[C@H](N[*:1])C(=O)[*:2]; NMeGly(cPent) = CN[C@H](C(=O)O)C1CCCC1; Phe(3-I) = N[C@@H](Cc1cccc(I)c1)C(=O)O; Pro(4,4-F2) = O=C(O)[C@@H]1CC(F)(F)CN1; NMeGly(cBu) = CN[C@H](C(=O)O)C1CCC1; NMeY = CN[C@@H](Cc1ccc(O)cc1)C(=O)O; NMeCha = CN[C@@H](CC1CCCCC1)C(=O)O; NMeChg = CN[C@H](C(=O)O)C1CCCCC1; NMeI = CC[C@H](C)[C@H](NC)C(=O)O; NMeD = CN[C@@H](CC(=O)O)C(=O)O; NMeL = CN[C@@H](CC(C)C)C(=O)O; Chg = N[C@H](C(=O)O)C1CCCCC1; NMeV = CN[C@H](C(=O)O)C(C)C; NMeAbu = CC[C@H](NC)C(=O)O; NMeA = CN[C@@H](C)C(=O)O; NMeAib = CNC(C)(C)C(=O)O; Nle = CCCC[C@H](N)C(=O)O; Piperidide = C1CCN(*)CC1; Pra = C#CC[C@H](N)C(=O)O; Pyrrolidide = C1CCN(*)C1; Ac5c = NC1(C(=O)O)CCCC1; Aze = O=C(O)[C@@H]1CCN1; Sar = CNCC(=O)O

Target: T1, Kras and SOS1 (biotin-tagged human Kras loaded with GDP, His-tagged human SOS1) (Homo sapiens, UniProt P01116, G12D)
T1 construct: made in house; host or cells: E. coli (stated for Kras only)
T1 sequence (P01116 1-188 isoform P01116-2 G12D): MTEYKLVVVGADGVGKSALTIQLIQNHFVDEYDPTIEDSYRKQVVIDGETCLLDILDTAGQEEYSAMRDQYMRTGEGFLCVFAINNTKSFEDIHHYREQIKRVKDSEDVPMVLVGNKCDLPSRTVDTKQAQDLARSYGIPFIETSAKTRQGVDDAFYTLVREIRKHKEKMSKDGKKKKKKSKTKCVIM
Experiment: Protein-protein interaction inhibition between Kras and SOS1 (KrasGl2D-SOS PPI) using AlphaScreen
Assay type: binding
Settings: AlphaScreen; biotin-tagged human Kras loaded with GDP, His-tagged human SOS1; read-out: KRAS G12D-SOS PPI IC50
In short: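 Donor beads (nickel) hold His-SOS1; acceptor beads (streptavidin) hold biotin-Kras bound to GDP. Signal measured at 520-620 nm following 680 nm excitation.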

Structure (SMILES)	IC50 [nM]
CC[C@H](C)[C@@H]1NC(=O)[C@H](CC(C)C)N(C)C(=O)C[C@@H](C(=O)N2CCCC2)N(C)C(=O)[C@H](C2CCCC2)N(C)C(=O)C2(CCCC2)NC(=O)[C@@H]2CCCN2C(=O)[C@H](CCc2cc(F)c(C(F)(F)F)c(F)c2)NC(=O)CN(C)C(=O)[C@H](CC2CCCCC2)N(C)C(=O)CN(C)C(=O)CN(C)C1=O [Compound 1342] ([NMeL]I[Sar][Sar][NMeCha][Sar][hPhe(3,5-F2-4-CF3)]P[Ac5c][NMeGly(cPent)][NMeD]-Pyrrolidide; lactam N-11)	0.53
CC[C@H](C)[C@@H]1NC(=O)[C@H](CC(C)C)N(C)C(=O)C[C@@H](C(=O)N2CCCC2)N(C)C(=O)[C@H]([C@@H](C)CC)N(C)C(=O)C2(CCCC2)NC(=O)[C@@H]2CCCN2C(=O)[C@H](CCc2cc(F)c(C(F)(F)F)c(F)c2)NC(=O)CN(C)C(=O)[C@H](Cc2ccc(C(F)(F)F)cc2)N(C)C(=O)[C@@H]2CCN2C(=O)[C@H](C)N(C)C1=O [Compound 1343] ([NMeL]I[NMeA][Aze][NMePhe(4-CF3)][Sar][hPhe(3,5-F2-4-CF3)]P[Ac5c][NMeI][NMeD]-Pyrrolidide; lactam N-11)	0.61
C#CC[C@@H]1NC(=O)[C@H](Cc2cccc(I)c2)NC(=O)CN(C)C(=O)[C@H](Cc2ccc(F)cc2)N(C)C(=O)[C@@H]2CCN2C(=O)CN(C)C(=O)[C@H]([C@@H](C)CC)NC(=O)[C@H](CC(C)C)N(C)C(=O)C[C@@H](C(=O)N2CCCCC2)N(C)C(=O)[C@H](CC(C)C)NC(=O)C(C)(C)N(C)C1=O [Compound 1344] ([NMeL]I[Sar][Aze][NMePhe(4-F)][Sar][Phe(3-I)][Pra][NMeAib]L[NMeD]-Piperidide; lactam N-11)	190
CC[C@H](C)[C@@H]1NC(=O)[C@H](CC(C)C)N(C)C(=O)C[C@@H](C(=O)N2CCCCC2)N(C)C(=O)[C@H](C2CCCCC2)N(C)C(=O)C2(CCCC2)NC(=O)[C@@H]2CCCN2C(=O)[C@H](CCc2ccc(C(F)(F)F)c(Cl)c2)NC(=O)CN(C)C(=O)[C@H](CC2CCCCC2)N(C)C(=O)CN(C)C(=O)[C@H](C)N(C)C1=O [Compound 1345] ([NMeL]I[NMeA][Sar][NMeCha][Sar][hPhe(3-Cl-4-CF3)]P[Ac5c][NMeChg][NMeD]-Piperidide; lactam N-11)	40
CC[C@H](C)[C@@H]1NC(=O)[C@H](CC(C)C)N(C)C(=O)C[C@@H](C(=O)N(C)C)N(C)C(=O)[C@H](C2CCCC2)N(C)C(=O)C2(CCCC2)NC(=O)[C@@H]2CC(F)(F)CN2C(=O)[C@H](CCc2cc(F)c(C(F)(F)F)c(F)c2)NC(=O)CN(C)C(=O)[C@H](CC2CCCCC2)N(C)C(=O)[C@@H]2CCN2C(=O)[C@H](C)N(C)C1=O [Compound 1346] ([NMeL]I[NMeA][Aze][NMeCha][Sar][hPhe(3,5-F2-4-CF3)][Pro(4,4-F2)][Ac5c][NMeGly(cPent)][NMeD]-NMe2; lactam N-11)	0.6
CC[C@H](C)[C@@H]1NC(=O)[C@H](CC(C)C)N(C)C(=O)C[C@@H](C(=O)N2CCS(=O)(=O)CC2)NC(=O)[C@H](C(C)C)N(C)C(=O)C2(CCCC2)NC(=O)[C@@H]2CCCN2C(=O)[C@H](CCc2ccc(C(F)(F)F)c(Cl)c2)NC(=O)CN(C)C(=O)[C@H](CC2CCCCC2)N(C)C(=O)[C@@H]2CCN2C(=O)[C@H](C)N(C)C1=O [Compound 1349] ([NMeL]I[NMeA][Aze][NMeCha][Sar][hPhe(3-Cl-4-CF3)]P[Ac5c][NMeV]D-{Thiomorpholino(1,1-dioxo)}; lactam N-11)	150
C#CC[C@@H]1NC(=O)[C@H](Cc2cccc(I)c2)NC(=O)CN(C)C(=O)[C@H](Cc2ccc(OC)cc2)N(C)C(=O)[C@@H]2CCN2C(=O)[C@H](C)N(C)C(=O)[C@H]([C@@H](C)CC)NC(=O)[C@H](CC(C)C)N(C)C(=O)C[C@@H](C(=O)N2CCCCC2)N(C)C(=O)[C@H](CC(C)C)NC(=O)C(C)(C)N(C)C1=O [Compound 1350] ([NMeL]I[NMeA][Aze][NMeY](Me)[Sar][Phe(3-I)][Pra][NMeAib]L[NMeD]-Piperidide; lactam N-11)	17
CCCC[C@@H]1NC(=O)[C@H](Cc2cc(I)ccc2Cl)NC(=O)CN(C)C(=O)[C@H](Cc2ccc(Cl)cc2)N(C)C(=O)CN(C)C(=O)CN(C)C(=O)[C@H]([C@@H](C)CC)NC(=O)[C@H](CC(C)C)N(C)C(=O)C[C@@H](C(=O)N2CCCCC2)N(C)C(=O)[C@H](CC(C)C)NC(=O)C(C)(C)N(C)C1=O [Compound 1352] ([NMeL]I[Sar][Sar][NMePhe(4-Cl)][Sar][X59][Nle][NMeAib]L[NMeD]-Piperidide; lactam N-11)	110
CC[C@H](C)[C@@H]1NC(=O)[C@H](CC(C)C)N(C)C(=O)C[C@@H](C(=O)N2CCCCC2)N(C)C(=O)[C@H](C2CCCCC2)NC(=O)C2(CCCC2)NC(=O)[C@@H]2CCCN2C(=O)[C@H](CCc2ccc(C(F)(F)F)c(Cl)c2)NC(=O)CN(C)C(=O)[C@H](CC2CCCCC2)N(C)C(=O)CN(C)C(=O)CN(C)C1=O [Compound 1354] ([NMeL]I[Sar][Sar][NMeCha][Sar][hPhe(3-Cl-4-CF3)]P[Ac5c][Chg][NMeD]-Piperidide; lactam N-11)	7.7
CC[C@H](C)[C@@H]1NC(=O)[C@H](CC(F)(F)F)N(C)C(=O)C[C@@H](C(=O)N2CCCC2)N(C)C(=O)[C@H](C2CCCCC2)N(C)C(=O)C2(CCCC2)NC(=O)[C@@H]2CC(F)(F)CN2C(=O)[C@H](CCc2ccc(C(F)(F)F)c(Cl)c2)NC(=O)CN(C)C(=O)[C@H](CC2CCCCC2)N(C)C(=O)CN(C)C(=O)CN(C)C1=O [Compound 1357] ([NMeAbu(4,4,4-F3)]I[Sar][Sar][NMeCha][Sar][hPhe(3-Cl-4-CF3)][Pro(4,4-F2)][Ac5c][NMeChg][NMeD]-Pyrrolidide; lactam N-11)	0.52
CCCC[C@@H]1NC(=O)[C@H](Cc2cc(I)ccc2C)NC(=O)CN(C)C(=O)[C@H](Cc2ccc(OC)cc2)N(C)C(=O)[C@@H]2CCN2C(=O)[C@H](C)N(C)C(=O)[C@H]([C@@H](C)CC)NC(=O)[C@H](CC)N(C)C(=O)C[C@@H](C(=O)N2CCCCC2)N(C)C(=O)[C@H](CC(C)C)NC(=O)C(C)(C)N(C)C1=O [Compound 1358] ([NMeAbu]I[NMeA][Aze][NMeY](Me)[Sar][X42][Nle][NMeAib]L[NMeD]-Piperidide; lactam N-11)	19
C#CC[C@@H]1NC(=O)[C@H](Cc2cccc(I)c2)NC(=O)CN(C)C(=O)[C@H](Cc2ccc(C(F)(F)F)cc2)N(C)C(=O)CN(C)C(=O)CN(C)C(=O)[C@H]([C@@H](C)CC)NC(=O)[C@H](CC(C)C)N(C)C(=O)C[C@@H](C(=O)N2CCCCC2)N(C)C(=O)[C@H](CC(C)C)NC(=O)C(C)(C)N(C)C1=O [Compound 1361] ([NMeL]I[Sar][Sar][NMePhe(4-CF3)][Sar][Phe(3-I)][Pra][NMeAib]L[NMeD]-Piperidide; lactam N-11)	24
CC[C@H](C)[C@@H]1NC(=O)[C@H](C2CCC2)N(C)C(=O)C[C@@H](C(=O)N2CCCC2)N(C)C(=O)[C@H](C2CCCCC2)N(C)C(=O)C2(CCCC2)NC(=O)[C@@H]2CC(F)(F)CN2C(=O)[C@H](CCc2ccc(C(F)(F)F)c(Cl)c2)NC(=O)CN(C)C(=O)[C@H](CC2CCCCC2)N(C)C(=O)CN(C)C(=O)CN(C)C1=O [Compound 1363] ([NMeGly(cBu)]I[Sar][Sar][NMeCha][Sar][hPhe(3-Cl-4-CF3)][Pro(4,4-F2)][Ac5c][NMeChg][NMeD]-Pyrrolidide; lactam N-11)	0.57
